Source: patent publication US8501708B2, “Adenosine compounds and their use thereof” (Inotek Pharmaceuticals Corporation, priority 2011, dated 2013)

Columns and labels:
[1] = molecular target: human recombinant A3 adenosine receptor (Homo sapiens (Human), UniProt P0DMS8); experiment: Adenosine receptor binding, displacement of specific [3H]NECA binding; details: [3H]NECA displacement, CHO cells stably transfected with human recombinant A3 adenosine receptor
Excerpt: (§1) The compounds were studied in binding assays to determine their selectivity and potency to the A1, A2a and A3 adenosine receptors.

[2] = molecular target: human recombinant A2A adenosine receptor (Homo sapiens (Human), UniProt P29274); experiment: as above; details: [3H]NECA displacement, CHO cells stably transfected with human recombinant A2A adenosine receptor
Sequence of human recombinant A2A adenosine receptor (P29274 whole entry): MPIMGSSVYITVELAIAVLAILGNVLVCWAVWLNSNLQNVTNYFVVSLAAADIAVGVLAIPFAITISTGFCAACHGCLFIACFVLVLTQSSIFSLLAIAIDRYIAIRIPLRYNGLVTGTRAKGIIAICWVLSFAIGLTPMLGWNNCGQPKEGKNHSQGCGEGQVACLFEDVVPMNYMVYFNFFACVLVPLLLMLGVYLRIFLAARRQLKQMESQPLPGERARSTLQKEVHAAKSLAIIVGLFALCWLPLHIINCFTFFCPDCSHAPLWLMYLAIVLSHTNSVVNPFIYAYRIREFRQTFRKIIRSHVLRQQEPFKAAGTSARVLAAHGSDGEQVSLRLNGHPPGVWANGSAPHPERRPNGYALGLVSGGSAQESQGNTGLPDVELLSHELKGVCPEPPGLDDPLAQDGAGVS
Excerpt: as §1

[3] = molecular target: human recombinant A1 adenosine receptor (Homo sapiens (Human), UniProt P30542); experiment: Adenosine receptor binding, displacement of specific [3H]CCPA binding; details: [3H]CCPA displacement, CHO cells stably transfected with human recombinant A1 adenosine receptor
Sequence of human recombinant A1 adenosine receptor (P30542 whole entry): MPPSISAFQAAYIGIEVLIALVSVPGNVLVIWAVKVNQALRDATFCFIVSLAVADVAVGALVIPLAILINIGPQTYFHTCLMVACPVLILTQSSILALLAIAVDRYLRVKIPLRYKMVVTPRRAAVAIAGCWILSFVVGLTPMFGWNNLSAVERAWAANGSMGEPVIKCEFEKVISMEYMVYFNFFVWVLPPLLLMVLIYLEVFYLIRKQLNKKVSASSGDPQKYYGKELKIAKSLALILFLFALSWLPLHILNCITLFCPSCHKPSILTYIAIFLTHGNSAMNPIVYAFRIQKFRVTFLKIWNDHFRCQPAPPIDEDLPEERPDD
Excerpt: as §1

[4] = system: ocular normotensive Dutch-Belted rabbits; experiment: Changes in intraocular pressure after topical administration to the eye; assay type: in vivo, rabbit; details: for changes in IOP relative to baseline after dosing (in words): 0-6 hours
Description: The study involved groups of eight rabbits and the rabbits were acclimated for two days before they received a single dose in either the right eye or left eye of the HPCD control. The IOP of the groups of rabbits were recorded at 0, 1, 2, 4 and 6 hours after dosing of the control.

Sequence of human recombinant A3 adenosine receptor (P0DMS8 whole entry): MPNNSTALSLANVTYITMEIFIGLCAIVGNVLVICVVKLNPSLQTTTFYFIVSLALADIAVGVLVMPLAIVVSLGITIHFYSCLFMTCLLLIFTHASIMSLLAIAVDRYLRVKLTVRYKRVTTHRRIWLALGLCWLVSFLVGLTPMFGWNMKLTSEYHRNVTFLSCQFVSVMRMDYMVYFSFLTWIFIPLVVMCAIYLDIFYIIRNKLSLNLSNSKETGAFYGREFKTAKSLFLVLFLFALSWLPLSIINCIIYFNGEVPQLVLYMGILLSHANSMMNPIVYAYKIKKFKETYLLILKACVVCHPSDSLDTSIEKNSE

OC[C@H]1O[C@@H](n2cnc3c(N[C@@H]4CCC[C@H]4OCc4cccc(I)c4)ncnc32)[C@H](O)[C@@H]1O [Compound 22, (2R,3S,4R,5R)-2-(hydroxymethyl)-5-(6-((1R,2R)-2-(3-iodobenzyloxy)cyclopentylamino)-9H-purin-9-yl)tetrahydrofuran-3,4-diol]
Ki [1]: 551 nM

OC[C@H]1O[C@@H](n2cnc3c(N[C@@H]4CCC[C@H]4OCc4ccc(F)cc4)ncnc32)[C@H](O)[C@@H]1O [Compound 20, (2R,3R,4S,5R)-2-(6-((1R,2R)-2-(4-fluorobenzyloxy)cyclopentylamino)-9H-purin-9-yl)-5-(hydroxymethyl)tetrahydrofuran-3,4-diol]
Ki [2]: 3780 nM | Ki [1]: 3710 nM

OC[C@H]1O[C@@H](n2cnc3c(N[C@H]4CCC[C@@H]4OCc4cccc(F)c4)ncnc32)[C@H](O)[C@@H]1O [Compound 8, (2R,3R,4S,5R)-2-(6-((1S,2S)-2-(3-fluorobenzyloxy)cyclopentylamino)-9H-purin-9-yl)-5-(hydroxymethyl)tetrahydrofuran-3,4-diol]
Ki [2]: 5540 nM | Ki [1]: 1630 nM

OC[C@H]1OC(n2cnc3c(NC4CCCCC4OCc4ccccc4)ncnc32)[C@H](O)[C@@H]1O (stereo partly shown) [Compound 4]
Ki [1]: > 100000 nM

Cc1ccccc1CO[C@H]1CCC[C@@H]1Nc1ncnc2c1ncn2[C@@H]1O[C@H](CO)[C@@H](O)[C@H]1O [Compound 7, (2R,3S,4R,5R)-2-(hydroxymethyl)-5-(6-((1S,2S)-2-(2-methylbenzyloxy)cyclopentylamino)-9H-purin-9-yl)tetrahydrofuran-3,4-diol]
Ki [3]: 12.6 nM | Ki [2]: 7330 nM | Ki [1]: 1570 nM

OC[C@H]1O[C@@H](n2cnc3c(N[C@@H]4CCC[C@H]4OCc4cccc(F)c4)ncnc32)[C@H](O)[C@@H]1O [Compound 19, (2R,3R,4S,5R)-2-(6-((1R,2R)-2-(3-fluorobenzyloxy)cyclopentylamino)-9H-purin-9-yl)-5-(hydroxymethyl)tetrahydrofuran-3,4-diol]
Ki [2]: 2550 nM | Ki [1]: 4040 nM

Cc1cccc(CO[C@@H]2CCC[C@H]2Nc2ncnc3c2ncn3[C@@H]2O[C@H](CO)[C@@H](O)[C@H]2O)c1 [Compound 17, (2R,3S,4R,5R)-2-(hydroxymethyl)-5-(6-((1R,2R)-2-(3-methylbenzyloxy)cyclopentylamino)-9H-purin-9-yl)tetrahydrofuran-3,4-diol]
Ki [3]: 2.65 nM | Ki [2]: 3370 nM | Ki [1]: 2620 nM | changes in IOP relative to baseline after dosing (in words) ([4]; topical single dose 200 mcg): do not show significant changes in IOP

Cc1ccc(CO[C@H]2CCC[C@@H]2Nc2ncnc3c2ncn3[C@@H]2O[C@H](CO)[C@@H](O)[C@H]2O)cc1 [Compound 3, (2R,3S,4R,5R)-2-(hydroxymethyl)-5-(6-((1S,2S)-2-(4-methylbenzyloxy)cyclopentylamino)-9H-purin-9-yl)tetrahydrofuran-3,4-diol]
Ki [3]: 29 nM | Ki [2]: 25400 nM | Ki [1]: 2550 nM

Cc1ccccc1CO[C@@H]1CCC[C@H]1Nc1ncnc2c1ncn2[C@@H]1O[C@H](CO)[C@@H](O)[C@H]1O [Compound 18, (2R,3S,4R,5R)-2-(hydroxymethyl)-5-(6-((1R,2R)-2-(2-methylbenzyloxy)cyclopentylamino)-9H-purin-9-yl)tetrahydrofuran-3,4-diol]
Ki [3]: 2.28 nM | Ki [2]: 422 nM | Ki [1]: 5100 nM | return of IOP to baseline levels, time post dosing ([4]; topical single dose 200 mcg): 6 h | reduction of IOP ([4]; topical single dose 200 mcg in HPCD formulation, 2 hours post dosing): 20%

OC[C@H]1O[C@@H](n2cnc3c(N[C@H]4CCC[C@@H]4OCc4cccc(I)c4)ncnc32)[C@H](O)[C@@H]1O [Compound 11, (2R,3S,4R,5R)-2-(hydroxymethyl)-5-(6-((1S,2S)-2-(3-iodobenzyloxy)cyclopentylamino)-9H-purin-9-yl)tetrahydrofuran-3,4-diol]
Ki [1]: 1290 nM | changes in IOP relative to baseline after dosing (in words) ([4]; topical single dose 200 mcg): do not show significant changes in IOP

Cc1cccc(CO[C@H]2CCC[C@@H]2Nc2ncnc3c2ncn3[C@@H]2O[C@H](CO)[C@@H](O)[C@H]2O)c1 [Compound 6, (2R,3S,4R,5R)-2-(hydroxymethyl)-5-(6-((1S,2S)-2-(3-methylbenzyloxy)cyclopentylamino)-9H-purin-9-yl)tetrahydrofuran-3,4-diol]
Ki [3]: 2.79 nM | Ki [2]: 5320 nM | Ki [1]: 1350 nM

OC[C@H]1OC(n2cnc3c(NC4CCC[C@@H]4OCc4ccc(F)cc4)ncnc32)[C@H](O)[C@@H]1O (stereo partly shown) [Compound 9]
Ki [2]: 11400 nM | Ki [1]: 1870 nM

OC[C@H]1OC(n2cnc3c(NC4CCCCC4OCc4ccccc4)ncnc32)[C@H](O)[C@@H]1O (stereo partly shown) [Compound 5]
Ki [1]: > 100000 nM
